According to patent US11253589B2, “Modulation of the immune response” (priority 2007, dated 2022):

Tests used:
[1] = system: MOG35-55-specific Treg and Teff; experiment: MOG35-55-specific Treg and Teff by MHC class II tetramer FACS; type: in vivo, mouse; conditions: Foxp3gfp mice, ITE 200 mg/mice intraperitoneal daily
Protocol: To investigate the effect of AHR activation by ITE on the frequency of MOG35-55 specific Treg and effector T cells (Teff), Foxp3^gpf knock in mice were immunized with MOG35-55/CFA, treated daily with intreaperitoneal ITE ([…]) and MOG35-55-specific Treg (CD4^+ FoxP3:GFP^+) and Teff (CD4^+ FoxP3:GFP^−) were analyzed by FACS using recombinant MHC class II tetramers containing […] or the control peptide TMEV70-86.

[2] = system: AHR-d mice; experiment: EAE induced with MOG35-55/CFA in AHR-d mice; type: in vivo; conditions: TCDD 1 μg/mouse
Protocol: C57BL/6 mice were given a single intraperitoneal (ip) dose of TCCD, and one day later EAE was induced by immunization with MOG35-55 in CFA. TCDD was also administered orally (1 μg/mouse) to determined whether an effective dose of this ligand can be delivered via oral administration and whether this dose is capable of reducing EAE development. EAE was induced by injecting the mice subcutaneously with […] of the MOG35-55 peptide ([…] (SEQ ID NO: 156)) in complete Freund adjuvant oil. In addition, the mice received 150 ng of pertussis toxin (Sigma-Aldrich) ip on days 0 and 2. Clinical signs of EAE were assessed according to the following score: 0, no signs of disease; 1, loss of tone in the tail; 2, hind limb paresis; 3, hind limb paralysis; 4, tetraplegia; 5, moribund.
To confirm that the effects on EAE were mediated by the activation of AHR, we used C57BL/6 mice carrying the d allele of the ahr gene (AHR-d mice). This allele codes for a mutant AHR with a 10 fold reduction in its affinity for TCDD and other ligands (Okey et al., Mol Pharmacol. 35, 823-30 (1989)) due to mutations in its ligand binding sites.

[3] = system: AHR; experiment: ChIP analysis of the interaction of AHR with CABS and NCABS in foxp3; type: cell-based, mouse; conditions: CD4+ T cells treated with TCDD for 90'
Protocol: Briefly, cells were treated for 90′ with TCDD, fixed with 1% formaldehyde for 15 minutes and quenched with 0.125 M glycine. Chromatin was isolated and sheared to an average length of 300-500 bp by sonication. Genomic DNA (input) was prepared by treating aliquots of chromatin with RNase, proteinase K and heat for de-crosslinking, followed by ethanol precipitation. AHR-bound DNA sequences were immuno-precipitated with an AHR-specific antibody (Biomol SA-210). Crosslinks were reversed by incubation overnight at 65° C., and ChIP DNA was purified by phenol-chloroform extraction and ethanol precipitation. Quantitative PCR reactions were then performed using the following primer pairs:
Experimental Ct values were converted to copy numbers detected by comparison with a DNA standard curve run on the same PCR plates. Copy number values were then normalized for primer efficiency by dividing by the values obtained using Input DNA and the same primer pairs. Error bars represent standard deviations calculated from the triplicate determinations.

[4] = system: zFoxp3; experiment: zFoxp3 expression in zebrafish embryos by real time PCR; type: in vivo; conditions: 3-day post-fertilization zebrafish embryos, TCDD in water, 72 hours
Protocol: The expression of zFoxp3 was then analyzed by real-time PCR on FACS-sorted lymphocytes, myelomonocytes and erythrocytes (Traver et al., Nat Immunol 4, 1238-46 (2003)). RNA was extracted from cells using RNAeasy columns (Qiagen, Valencia, Calif., USA), complementary DNA was prepared as recommended (Bio-Rad Laboratories, Hercules, Calif., USA) and used as template for real time PCR. The expression of Foxp3 was quantified with specific primers and probes (Applied Biosystems, Foster City, Calif., USA) on the GeneAmp 5500 Sequence Detection System (Applied Biosystems). Expression was normalized to the expression of the housekeeping gene, GAPDH.
TCDD was also used to characterize the functional relationship between AHR and Foxp3.

[5] = system: IgG serum antibodies to myelin antigens; experiment: Antigen microarray of serum antibody response to myelin; type: in vivo, mouse; conditions: TCDD-treated mice that did not develop EAE, FDR < 0.05
Protocol: The antigens listed in Table 1 were spotted onto Epoxy slides (TeleChem, Sunnyvale, Calif., USA) as described (Quintana et al., Proc Natl Acad Sci USA 101 Suppl 2, 14615-21 (2004)). Antigens were spotted in replicates of 6, the microarrays were blocked for 1 h at 37° C. with 1% bovine serum albumin, and incubated for 2 hours at 37° C. with a 1:100 dilution of the test serum in blocking buffer. The arrays were then washed and incubated for 45 min at 37° C. with goat anti-mouse IgG Cy3-conjugated detection antibodies (Jackson ImmunoResearch Labs, West Grove, Pa., USA). The arrays were scanned with a ScanArray 4000X scanner (GSI Luminomics, Billerica, Mass., USA). Antigen reactivity was defined by the mean intensity of binding to the replicates of that antigen on the microarray. Raw data were normalized and analyzed using the GeneSpring software (Silicon Genetics, Redwood City, Calif., USA) with the non-parametric Wilcoxon-Mann-Whitney test, using the Benjamini and Hochberg method with a false discovery rate (FDR) of 0.05 to determine significance. The samples were clustered using a pairwise average linkage algorithm based on Spearman's rank correlation as a distance measure. […]

[6] = system: mouse Foxp3 locus; experiment: Zebrafish microinjected with renilla-tagged mouse Foxp3 BAC; type: in vivo; conditions: total zebrafish lysates six days after microinjection, increasing amounts of TCDD
Protocol: A modified zebrafish based screening assay was established by microinjecting fertilized zebrafish eggs with a BAC construct encoding the complete mouse Foxp3 locus, with a renilla reporter inserted after the Foxp3 methionine start codon (ATG). Six days after microinjection, renilla activity was determined in total zebrafish lysates.

| SMILES | frequency of MOG35-55-specific Teff [1] | frequency of MOG35-55-specific Treg [1] | Mean day of onset (Mean ± SD) [2] [days] | Mean maximum score (mean ± SD) [2] | progression of EAE [2] | AHR binding to NCABS-1, NCABS-3 in foxp3 (ChIP) [3] | AHR binding to the CABS and NCABS-2 in foxp3 (ChIP) [3] | zFoxp3 expression [4] | IgG serum antibodies to myelin antigens [5] | renilla luciferase activity (murine Foxp3 expression) [6] |
| --- | --- | --- | --- | --- | --- | --- | --- | --- | --- | --- |
| COC(=O)c1csc(C(=O)c2c[nH]c3ccccc23)n1 [ITE, 2-(1′H-indole-3′-carbonyl)-thiazole-4-carboxylic acid methyl ester] | decrease in the frequency | concomitant increase in the frequency |  |  |  |  |  |  |  |  |
| Clc1cc2c(cc1Cl)Oc1cc(Cl)c(Cl)cc1O2 [TCDD, 2,3,7,8 tetrachlorodibenzo-p-dioxin] |  |  | 17.3 ± 3.0 | 2.2 ± 1.4 | did not inhibit the progression of EAE | No significant increase in AHR binding | increased AHR binding to the CABS and NCABS-2 | dose-dependent increase in zFoxp3 expression | significant decrease in IgG serum antibodies to 97 myelin antigens | increased in the presence of TCDD in a dose-dependent manner |
